Structures can show the parent of a compound that is named as a salt.

As a reminder, the inhibition is the change of the read-out against control, counted positive when it falls. In general, IC50 refers to the concentration that inhibits the measured activity by half.

For one test, the target named is LsrK (Salmonella typhimurium, UniProt Q8ZKQ6). The test can be described thus: biochemical.
LsrK, sequence (Q8ZKQ6 whole entry): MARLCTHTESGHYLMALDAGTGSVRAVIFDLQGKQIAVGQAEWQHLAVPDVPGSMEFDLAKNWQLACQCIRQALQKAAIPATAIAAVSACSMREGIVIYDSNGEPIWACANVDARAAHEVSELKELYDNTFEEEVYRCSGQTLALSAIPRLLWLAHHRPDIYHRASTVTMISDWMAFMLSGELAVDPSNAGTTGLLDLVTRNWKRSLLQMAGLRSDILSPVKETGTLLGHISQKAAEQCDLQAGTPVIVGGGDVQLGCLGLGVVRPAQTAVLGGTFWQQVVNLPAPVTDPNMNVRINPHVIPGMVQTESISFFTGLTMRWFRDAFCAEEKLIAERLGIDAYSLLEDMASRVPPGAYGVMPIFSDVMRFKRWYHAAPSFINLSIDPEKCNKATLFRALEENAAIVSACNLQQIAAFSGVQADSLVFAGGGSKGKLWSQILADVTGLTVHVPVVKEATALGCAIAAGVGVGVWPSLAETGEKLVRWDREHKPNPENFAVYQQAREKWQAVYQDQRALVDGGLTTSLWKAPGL
Conditions: not given
The test is classed as biochemical, S. typhimurium.
In the case of `O=C(O)CCNC(=O)c1ccccc1` [BETAMIPRON], the inhibition at 50 µM was 0%.

For `COc1cc(NC(C)CCCN)c2ncccc2c1` (centres unmarked) [PRIMAQUINE DIPHOSPHATE], the inhibition at 50 µM stood at 89%.

For the compound `CC[C@H]1OC(=O)[C@H](C)[C@@H](O[C@H]2C[C@@](C)(OC)[C@@H](O)[C@H](C)O2)[C@H](C)[C@@H](O[C@@H]2O[C@H](C)C[C@H](N(C)C)[C@H]2O)[C@](C)(OC)C[C@@H](C)C(=O)[C@H](C)[C@@H](O)[C@]1(C)O` [CLARITHROMYCIN], the inhibition at 50 µM came to 0%.

Take `CC12CCC(CC1)C(C)(C)O2` [CINEOLE]: the inhibition at 50 µM turned out to be 1%.

As to `O=C(O)c1ccccc1C(=O)Nc1ccc(S(=O)(=O)Nc2nccs2)cc1` [PHTHALYLSULFATHIAZOLE], the inhibition at 50 µM turned out to be 1%.

For the compound `COC(=O)C(N)CS` (centres unmarked) [MECYSTEINE HYDROCHLORIDE], the inhibition at 50 µM came out at 112%.

Regarding `OC[C@H]1O[C@@](CO)(O[C@H]2O[C@H](CO)[C@@H](O)[C@H](O)[C@H]2O)[C@@H](O[C@H]2O[C@H](CO)[C@@H](O)[C@H](O)[C@H]2O)[C@@H]1O` [MELEZITOSE], the inhibition at 50 µM was 2%.

For the compound `CO/N=C1\CN(c2nc3c(cc2F)c(=O)c(C(=O)O)cn3C2CC2)CC1CN` (centres unmarked) [GEMIFLOXACIN MESYLATE], the inhibition at 50 µM was 0%.

Take `CCn1cc(C(=O)O)c(=O)c2cnc(N3CCCC3)nc21` [PIROMIDIC ACID]: the inhibition at 50 µM came out at 19%.

In the case of `CC(C)CCC[C@@H](C)[C@H]1CC[C@H]2[C@@H]3CC=C4C[C@@H](O)CC[C@]4(C)[C@H]3CC[C@]12C` [CHOLESTEROL], the inhibition at 50 µM is 0%.

In the case of `CC[n+]1c(-c2ccccc2)c2cc(N)ccc2c2ccc(N)cc21` [HOMIDIUM BROMIDE], the inhibition at 50 µM was 72%.

In the case of `O=C(O)c1ccc2c(c1)OCO2` [PIPERONYLIC ACID], the inhibition at 50 µM stood at 1%.

Consider `CN(C)c1ccc(C(=C2C=CC(=[N+](C)C)C=C2)c2ccc(N(C)C)cc2)cc1` [GENTIAN VIOLET], for which the inhibition at 50 µM is 11%.

With `COc1ccc2c(c1)OC[C@@H](Cc1ccc(OC)c(OC)c1)[C@@H]2O` [3-DESHYDRO[…] ETHER], the inhibition at 50 µM worked out at 3%.

On to `NC(=O)C(c1ccccc1)(c1ccccc1)[C@@H]1CCN(CCc2ccc3c(c2)CCO3)C1` [DARIFENACIN HYDROBROMIDE], for which the inhibition at 50 µM stood at 2%.

With `CCN(CCCCOC(=O)c1ccc(OC)c(OC)c1)C(C)Cc1ccc(OC)cc1` (centres unmarked) [MEBEVERINE HYDROCHLORIDE], the inhibition at 50 µM was found to be 1%.

Consider `COc1cc(-c2coc3cc(O)c(OC)c(O)c3c2=O)cc(O)c1OC` [[…]], for which the inhibition at 50 µM came to 5%.

On to `CCC(NC(C)C)C(O)c1ccc(O)c(O)c1` (centres unmarked) [ISOETHARINE MESYLATE], for which the inhibition at 50 µM was 2%.

Turning to `O=C(O[C@@H]1Cc2c(O)cc(O)cc2O[C@@H]1c1cc(O)c(=O)c2c(O)c(O)cc([C@H]3Oc4cc(O)cc(O)c4C[C@H]3O)c2c1)c1cc(O)c(O)c(O)c1` [THEAFLAVIN MONOGALLATES], the inhibition at 50 µM amounted to 129%.

Consider `COc1cc(/C=C/C(=O)CC(=O)/C=C/c2ccc(O)c(OC)c2)ccc1O` [CURCUMIN], for which the inhibition at 50 µM was 1%.

Consider `N[C@@H](C(=O)N[C@@H]1C(=O)N2C(C(=O)O)=C(Cl)CS[C@H]12)c1ccccc1` [CEFACLOR], for which the inhibition at 50 µM came to 24%.

In the case of `O=C(O)c1ccccc1` [BENZOIC ACID], the inhibition at 50 µM came out at 3%.

Take `COc1ccc2[nH]c([S+]([O-])Cc3ncc(C)c(OC)c3C)nc2c1` (centres unmarked) [OMEPRAZOLE]: the inhibition at 50 µM turned out to be 6%.

With `CO[C@H]1/C=C/O[C@@]2(C)Oc3c(C)c(O)c4c(O)c(c5c(nc6cc(C)ccn65)c4c3C2=O)NC(=O)/C(C)=C\C=C\[C@H](C)[C@H](O)[C@@H](C)[C@@H](O)[C@@H](C)[C@H](OC(C)=O)[C@@H]1C` [RIFAXIMIN], the inhibition at 50 µM amounted to 1%.

`C=C[C@H]1CN2CC[C@H]1C[C@H]2[C@H](O)c1ccnc2ccccc12` [CINCHONIDINE]: the inhibition at 50 µM is 0%.

Turning to `COc1cc2ccc(=O)oc2c(OC)c1OC` [FRAXIDIN METHYL ETHER], the inhibition at 50 µM is 1%.

Regarding `O=c1c(-c2cc(O)c(O)c(O)c2)coc2cc(O)c(O)c(O)c12` [IRIGENOL], the inhibition at 50 µM is 90%.

With `Cc1ncc([N+](=O)[O-])n1CCO` [METRONIDAZOLE], the inhibition at 50 µM turned out to be 0%.

`COC(=O)C[C@H]1C(C)(C)C(=O)[C@@H]2CC3C4=CC(=O)O[C@@H](c5ccoc5)[C@]4(C)CC[C@@H]3[C@@]1(C)C2=O` (some centres unmarked) [CARAPIN]: the inhibition at 50 µM worked out at 2%.

Turning to `CN1C[C@H](C(=O)N[C@]2(C)O[C@@]3(O)[C@@H]4CCCN4C(=O)[C@H](Cc4ccccc4)N3C2=O)C=C2c3cccc4[nH]cc(c34)C[C@H]21` [ERGOTAMINE TARTRATE], the inhibition at 50 µM was 2%.

With `NC[C@@H]1O[C@H](O[C@H]2[C@@H](O)[C@H](O[C@@H]3[C@@H](O)[C@H](N)C[C@H](N)[C@H]3O[C@H]3O[C@H](CO)[C@@H](O)[C@H](O)[C@H]3N)O[C@@H]2CO)[C@H](N)[C@@H](O)[C@@H]1O` [PAROMOMYCIN SULFATE], the inhibition at 50 µM was determined as 3%.

On to `OC[C@H]1O[C@H](O[C@]2(CCl)O[C@H](CCl)[C@@H](O)[C@@H]2O)[C@H](O)[C@@H](O)[C@H]1Cl` [SUCRALOSE], for which the inhibition at 50 µM came out at 3%.

Turning to `Nc1nc(=O)c2[nH]c(=O)cnc2[nH]1` [XANTHOPTERIN], the inhibition at 50 µM was 2%.

`NCCc1c[nH]cn1` [HISTAMINE DIHYDROCHLORIDE]: the inhibition at 50 µM came out at 3%.

Regarding `CCCCCc1c2c(cc(O)c1C(=O)O)OC(=O)c1c(cc(OC)cc1C(=O)CCCC)O2` [LOBARIC ACID], the inhibition at 50 µM is 98%.

With `CC(CCc1ccc(O)cc1)NCCc1ccc(O)c(O)c1` (centres unmarked) [DOBUTAMINE HYDROCHLORIDE], the inhibition at 50 µM is 3%.

Turning to `Nc1[nH]c(=O)ncc1F` [FLUCYTOSINE], the inhibition at 50 µM was found to be 0%.

For the compound `CC(=O)N[C@@H](Cc1c[nH]c2ccccc12)C(=O)O` [ACETYLTRYPTOPHAN], the inhibition at 50 µM worked out at 6%.

Consider `c1ccc2c(c1)[nH]c1cnccc12` [NORHARMAN], for which the inhibition at 50 µM was found to be 1%.

`Cc1cc(C(C)(C)C)cc(C)c1CC1=NCCN1` [XYLOMETAZOLINE HYDROCHLORIDE]: the inhibition at 50 µM is 1%.

With `COc1cc(O)c2c(=O)cc(C)oc2c1CC=C(C)C` [HETEROPEUCENIN. METHYL ETHER], the inhibition at 50 µM was 1%.

With `COc1cc(C2Oc3cc([C@H]4Oc5cc(O)cc(O)c5C(=O)[C@@H]4O)ccc3OC2CO)ccc1O` (some centres unmarked) [SILIBININ], the inhibition at 50 µM worked out at 27%.

Regarding `CC(C)(C)NC[C@H](O)c1ccc(O)c(CO)c1` [LEVALBUTEROL HYDROCHLORIDE], the inhibition at 50 µM came out at 8%.

On to `Cc1nc2sccn2c(=O)c1CCN1CCC(=C(c2ccc(F)cc2)c2ccc(F)cc2)CC1` [RITANSERIN], for which the inhibition at 50 µM came out at 3%.

On to `O=C(/C=C/C(=O)Oc1ccccc1C(=O)O)Oc1ccccc1C(=O)O` [[…]], for which the inhibition at 50 µM came to 2%.

As to `C=C1C(=O)O[C@H]2[C@H]1CC/C(C)=C/CC[C@@]1(C)O[C@@H]21` [PARTHENOLIDE], the inhibition at 50 µM is 3%.

Regarding `COc1ccc(CCN(C)CCCC(C#N)(c2ccc(OC)c(OC)c2)C(C)C)cc1OC` (centres unmarked) [VERAPAMIL HYDROCHLORIDE], the inhibition at 50 µM stood at 1%.

On to `CC(=O)O[C@H]1C[C@@H](OC(C)=O)C(C)(C)[C@@H]2CC(=O)[C@]3(C)[C@H](CC[C@@]4(C)[C@H](c5ccoc5)OC(=O)[C@H]5O[C@]543)[C@@]12C` [7-DEACETOXY-7-OXOKHIVORIN], for which the concentration for half-maximal inhibition (IC50) was 3 µM and the inhibition at 50 µM came to 133%.

On to `Oc1cc(O)c2c(c1)O[C@H](c1ccc(O)c(O)c1)[C@H](O)C2` [EPICATECHIN], for which the inhibition at 50 µM was 2%.

The test is the same for the next values; noted with them: 50 µM.
In the case of METHIONINE SULFOXIMINE (L), the “Inhibition (%)” value is 2.

Consider `COc1cc2c(cc1-c1cc3cc4ccoc4cc3oc1=O)OCO2` [PACHYRRHIZIN], for which the “Inhibition (%)” value was found to be 1.

Consider `Cc1occc(=O)c1O` [LARIXINIC ACID], for which the “Inhibition (%)” value was 1.

Consider `C=C(C)CCCC(C)CCOC(C)=O` (centres unmarked) [RHODINYL ACETATE], for which the “Inhibition (%)” value came to 0.

On to `CC1(C)CC2C1CCC1(C)OC2(C)CCC1O` (centres unmarked) [3.7-EPOXYCARYOPHYLLAN-6-OL], for which the “Inhibition (%)” value amounted to 2.

`COc1ccc2oc(-c3ccccc3OC)cc(=O)c2c1` [6.2'-DIMETHOXYFLAVONE]: the “Inhibition (%)” value is on record as 1.

On to `CC[C@H](CC[C@@H](C)[C@H]1CC[C@H]2[C@@H]3CC[C@H]4C[C@@H](O)CC[C@]4(C)[C@H]3CC[C@]12C)C(C)C` [FUCOSTANOL], for which the “Inhibition (%)” value stood at 1.

For `COC(=O)C[C@H]1C(C)(C)C2(O)OC34CC2C(=O)[C@]1(C)C3CC[C@]1(C)C4=CC(=O)O[C@H]1c1ccoc1` (stereo partly drawn) [8beta-HYDROXYCARAPIN. 3.8-HEMIACETAL], the “Inhibition (%)” value was 0.

With `N.N.[Cl][Pt][Cl]` [CISPLATIN], the “Inhibition (%)” value worked out at 2.

For the compound `COc1cc(O)c(C(=O)/C=C/c2ccc(OC)c(O)c2)c(OC)c1` [2'.3-DIHYDROXY-4.4'.6'-TRIMETHOXYCHALCONE], the “Inhibition (%)” value stood at 2.

With `C=C[C@@](C)(O)CC[C@H]1C(=C)C[C@H](OC(C)=O)[C@H]2C(C)(C)CCC[C@]12C` [LARIXOL ACETATE], the “Inhibition (%)” value came out at 3.

With CHLOROPHYLLIDE Cu COMPLEX Na SALT, the “Inhibition (%)” value came out at 104.

With `CCC(=O)OCC(=O)[C@@]1(OC(=O)CC)[C@@H](C)C[C@H]2[C@@H]3CCC4=CC(=O)C=C[C@]4(C)[C@@]3(F)[C@@H](O)C[C@@]21C` [BETAMETHASONE 17.21-DIPROPIONATE], the “Inhibition (%)” value is 0.

Take `COc1cc2c3cc1Oc1cc(ccc1O)C[C@@H]1c4c(cc(OC)c(O)c4Oc4ccc(cc4)C[C@@H]3N(C)CC2)CC[N+]1(C)C.Cl.O.O.O.O.O.[Cl-]` [TUBOCURARINE CHLORIDE]: the “Inhibition (%)” value was determined as 0.

Take CRESOL: the “Inhibition (%)” value worked out at 0.

Take `CN(C)CCOc1ccc(/C(=C(/CCCl)c2ccccc2)c2ccccc2)cc1` [TOREMIPHENE CITRATE]: the “Inhibition (%)” value is on record as 138.

As to `CC(=O)O[C@@H]1CC2C(C)(C)C(=O)C3OC3[C@]2(C)C2CC[C@@]3(C)[C@H](c4ccoc4)OC(=O)C4OC43[C@@]21C` (some centres unmarked) [EPOXYGEDUNIN], the “Inhibition (%)” value is 0.

In the case of `COC(=O)[C@H]1[C@H]2C[C@H]3c4[nH]c5ccccc5c4CCN3C[C@@H]2CC[C@@H]1O` [CORYNANTHINE], the “Inhibition (%)” value came out at 2.

Values taken from article PMC6627609, “Targeting Quorum Sensing: High-Throughput Screening to Identify Novel LsrK Inhibitors” (International Journal of Molecular Sciences, 2019).
